Measured values taken from patent US10889591B2, “PDE9 inhibitor and use thereof” (Nanjing TransThera Biosciences Co. Ltd., priority 2017, dated 2021).
Like-named read-outs stand apart in the source and are kept apart here.

Legend:
[1] = Rat pharmacokinetic evaluation; assay type: in vivo, SD male rats; conditions: SD rat, intravenous bolus 1 mg/kg; for AUC(0-t) / clearance / half-life: male, Sprague-Dawley, plasma; for AUC(0-t): read-out: AUClast iv; for clearance: read-out: Cl_obs iv (clearance rate) (converted); for half-life: read-out: tz1/2 iv (terminal elimination half-life) (converted)
[2] = Stability in human liver microsome; conditions: for k / Original drug residual % at 60 min / CLint / T1/2 (min): human liver microsome 0.5 mg protein/mL, compound 1 μM; for k: slope of log remaining amount versus time; for Original drug residual % at 60 min: β-NADPH 1 mM, 37° C.; for half-life at 1 μM: human, liver microsomes
[3] = Rat pharmacokinetic evaluation; assay type: in vivo, SD male rats; conditions: male, Sprague-Dawley, plasma, SD rat; for Tmax / AUC(0-t) / half-life: po, intragastric 5 mg/kg; for Tmax: median; for AUC(0-t): read-out: AUClast po; for half-life: read-out: tz1/2 po (terminal elimination half-life) (converted); for bioavailability: dose iv/po 1/5 mg/kg, read-out: F % (absolute bioavailability)
Description: Experimental Example 4: Rat Pharmacokinetic Evaluation of the Compounds of the Invention
Aim: The in vivo pharmacokinetic parameters of the compounds in SD male rats (purchased from Beijing Vital River Animal Technology Co., Ltd.) were evaluated and bioavailability of the compounds was examined.
Animal Administration and Sample Collection:
The solution of compounds 65, 90, 107, 158 was intragastrically administered to SD rat at a dose of 5.0 mg/kg.
The experimental compound 76 was dissolved in 30% DMF+30% PEG400+40% saline to prepare a solution. The solution of compound 76 was intragastrically administered to SD rat at a dose of 5.0 mg/kg.
The experimental compound 76 was dissolved in 30% DMF+30% PEG400+40% saline to prepare a solution.
The experimental compounds 84 and 96 were dissolved in 5% DMSO+10% PEG400+85% (28% HP-β-CD) saline to prepare a solution. The solution of compounds 84 and 96 was intragastrically administered to SD rat at a dose of 5.0 mg/kg.
The experimental compounds 84 and 96 were dissolved in 5% DMSO+10% PEG400+85% (28% HP-β-CD) saline to prepare a solution.
The animals were fixed. The tail was heated with a water bath at 10 min before each time point. About 100 μL of blood from tail vein was collected, and then placed in an anti-coagulation tube containing EDTA-K2 after collection. Blood samples were centrifuged at 8000 rpm at 4° C. for 6 min to obtain plasma samples.
The concentration of test sample was output using Analyst 1.6.1 from AB SCIEX.

[4] = Canine pharmacokinetic evaluation; assay type: in vivo; conditions: Beagle dogs; for Vz_obs iv (apparent distribution volume) / AUC(0-inf) / half-life / bioavailability / clearance: n = 3; for Tmax / AUC(0-inf) / half-life / bioavailability / clearance: dog, plasma; for Tmax: n = 3, median; for clearance: read-out: Cl_obs iv (clearance rate) (converted)
Description: 1. Animal Administration and Sample Collection
2. Sample Analysis Method
3. Data Processing Method

[5] = in vitro; conditions: human, microsomes
[6] = human; for CLint: microsomes
[7] = intravenous bolus 1 mg/kg, read-out: AUCinf iv
[8] = intravenous bolus 1 mg/kg, read-out: tz1/2 iv (terminal elimination half-life) (converted)

With `CNC(=O)c1cc2c(N3CCC4(CC3)CC4)c(C#N)c(=O)[nH]c2cn1` [Compound 96, 3-cyano-N-methyl-2-oxo-4-(6-azaspiro[2.5]octane-6-yl)-1,2-dihydro-1,7-naphthyridin-6-formamide] the “Vz_obs iv (apparent distribution volume)” value [1] was 0.57 L/kg, the AUC(0-t) [1] was 769 ng·h/mL and the clearance [1] was 22 mL/min/kg. It also gave a half-life [1] of 0.3 h.

For `COc1cc2c(N3CCC4(CCC4)CC3)c(C#N)c(=O)[nH]c2cn1` [Compound 66, 6-methoxy-2-oxo-4-(7-azaspiro[3.5]nonane-7-yl)-1,2-dihydro-1,7-naphthyridin-3-carbonitrile], the “k” value [2] was -0.515 min⁻¹ and the “Original drug residual % at 60 min” value [2] was 101%.

For `COCCOc1cc2c(N3CCC(C)(OC)CC3)c(C#N)c(=O)[nH]c2cn1` [Compound 145, 4-(4-methoxy-4-methylpiperidin-1-yl)-6-(2-methoxyethoxy)-2-oxo-1,2-dihydro-1,7-naphthyridin-3-carbonitrile], the CLint [2] was 0.0038 mL · min^−1 · mg^−1 proteins, the “k” value [2] was 0.0019 min⁻¹ and the “Original drug residual % at 60 min” value [2] was 88.2%. It also gave a half-life at 1 μM [2] of 6.08 h.

In the case of `N#Cc1c(N2CCC3(CC2)CC3)c2cc(C(O)CO)ncc2[nH]c1=O` (stereo not drawn) [Compound 32, 6-(1,2-dihydroxyethyl)-2-oxo-4-(6-azaspiro[2.5]octane-6-yl)-1,2-dihydro-1,7-naphthyridin-3-carbonitrile], the “T1/2 (min)” value [2] is reported as “→∞”, the “k” value [2] is reported as -0.3760 min⁻¹ and the “Original drug residual % at 60 min” value [2] is reported as 99.8%.

In the case of `CCc1cc2c(N3CCC(C)(OC)CC3)c(C#N)c(=O)[nH]c2cn1` [Compound 107, 6-ethyl-4-(4-methoxy-4-methylpiperidin-1-yl)-2-oxo-1,2-dihydro-1,7-naphthyridin-3-carbonitrile], the Tmax [3] is reported as 0.5 h, the AUC(0-t) [3] is reported as 1940 ng·h/mL and the half-life [3] is reported as 2.68 h. The bioavailability [3] was 56.8%, the CLint [2] was 0.0046 mL · min^−1 · mg^−1 proteins and the “k” value [2] was 0.0023 min⁻¹. The “Original drug residual % at 60 min” value [2] was 88.5%, the half-life at 1 μM [2] was 5.02 h and the “Vz_obs iv (apparent distribution volume)” value [1] was 2.13 L/kg. For the same compound, the AUC(0-t) [1] was 748 ng·h/mL, the clearance [1] was 24.2 mL/min/kg and the half-life [1] was 1.25 h. For the same compound, the “Vz_obs iv (apparent distribution volume)” value ([4]; intravenous bolus 1 mg/kg) was 2.05 L/kg, the Tmax ([4]; po, intragastric 1 mg/kg) was 0.5 h and the AUC(0-inf) ([4]; po, intragastric 1 mg/kg, read-out: AUCinf po) was 757 ng·h/mL. The half-life ([4]; po, intragastric 1 mg/kg, read-out: tz1/2 po (terminal elimination half-life) (converted)) was 2.56 h, the bioavailability ([4]; dose iv/po 1/1 mg/kg) was 61.5% and the AUC(0-inf) [4, 7] was 1230 ng·h/mL. It also gave a clearance ([4]; intravenous bolus 1 mg/kg) of 16 mL/min/kg and a half-life [4, 8] of 1.64 h.

With `CC(C)(O)c1cc2c(N3CCC4(CCC4)CC3)c(C#N)c(=O)[nH]c2cn1` [Compound 82, 6-(2-hydroxypropan-2-yl)-2-oxo-4-(7-azaspiro[3.5]nonane-7-yl)-1,2-dihydro-1,7-naphthyridin-3-carbonitrile] the half-life [5] was 2.07 h, the “Original drug residual % at 60 min” value [6] was 72.4% and the “k” value [6] was 0.9760 min⁻¹. The CLint [6] was 0.0112 mL · min^−1 · mg^−1 proteins.

In the case of `N#Cc1c(N2CCC3(CCC3)CC2)c2cc(N3CC(O)C3)ncc2[nH]c1=O` [Compound 51, 6-(3-hydroxyazetidin-1-yl)-2-oxo-4-(7-azaspiro[3.5]nonane-7-yl)-1,2-dihydro-1,7-naphthyridin-3-carbonitrile], the half-life [5] is reported as 2.1 h, the “Original drug residual % at 60 min” value [6] is reported as 74.1% and the “k” value [6] is reported as 0.9418 min⁻¹. For the same compound, the CLint [6] was 0.0110 mL · min^−1 · mg^−1 proteins.

For `CC(C)(O)c1cc2c(N3CCC4(CC3)CC4)c(C#N)c(=O)[nH]c2cn1` [Compound 84, 6-(2-hydroxypropan-2-yl)-2-oxo-4-(6-azaspiro[2.5]octane-6-yl)-1,2-dihydro-1,7-naphthyridin-3-carbonitrile], the Tmax [3] was 1 h, the AUC(0-t) [3] was 7580 ng·h/mL and the half-life [3] was 3.24 h. For the same compound, the bioavailability [3] was 62.5%, the “Vz_obs iv (apparent distribution volume)” value [1] was 1.16 L/kg and the AUC(0-t) [1] was 2430 ng·h/mL. It also gave a clearance [1] of 8.17 mL/min/kg and a half-life [1] of 1.89 h.

In the case of `N#Cc1c(N2CC[C@@H](n3cccn3)C2)c2ccncc2[nH]c1=O` [Compound 19, (R)-4-(3-(1H-pyrazol-1-yl)pyrrolidin-1-yl)-2-oxo-1,2-dihydro-1,7-naphthyridin-3-carbonitrile], the CLint [2] is reported as 0.0012 mL · min^−1 · mg^−1 proteins, the “k” value [2] is reported as 0.191 min⁻¹ and the “Original drug residual % at 60 min” value [2] is reported as 93.4%. It also gave a half-life at 1 μM [2] of 19.2 h.

With `N#Cc1c(N2CCC3(CCC3)CC2)c2cc(N3CC(N)C3)ncc2[nH]c1=O` [Compound 53, 6-(3-aminoazetidin-1-yl)-2-oxo-4-(7-azaspiro[3.5]nonane-7-yl)-1,2-dihydro-1,7-naphthyridin-3-carbonitrile] the half-life [5] was 10.5 h, the “Original drug residual % at 60 min” value [6] was 91.4% and the “k” value [6] was 0.4821 min⁻¹. For the same compound, the CLint [6] was 0.0022 mL · min^−1 · mg^−1 proteins.

For `N#Cc1c(Nc2ccc(Cl)cc2)c2ccncc2[nH]c1=O` [Compound 18, 4-((4-chlorophenyl)amino)-2-oxo-1,2-dihydro-1,7-naphthyridin-3-carbonitrile], the CLint [2] was 0.1244 mL · min^−1 · mg^−1 proteins, the “k” value [2] was 0.727 min⁻¹ and the “Original drug residual % at 60 min” value [2] was 5.19%. For the same compound, the half-life at 1 μM [2] was 0.186 h.

With `COC1(C)CCN(c2c(C#N)c(=O)[nH]c3cnc(C)cc23)CC1` [Compound 158, 4-(4-methoxy-4-methylpiperidin-1-yl)-6-methyl-2-oxo-1,2-dihydro-1,7-naphthyridin-3-carbonitrile] the CLint [2] was 0.0026 mL · min^−1 · mg^−1 proteins, the “k” value [2] was 0.0013 min⁻¹ and the “Original drug residual % at 60 min” value [2] was 92.6%. For the same compound, the half-life at 1 μM [2] was 8.88 h.

For `N#Cc1c(N2CCC3(CC2)CC3)c2ncccc2[nH]c1=O` [Compound 80, 2-oxo-4-(6-azaspiro[2.5]octane-6-yl)-1,2-dihydro-1,5-naphthyridin-3-carbonitrile], the half-life [5] was 0.792 h, the “Original drug residual % at 60 min” value [6] was 41.7% and the “k” value [6] was 0.9877 min⁻¹. For the same compound, the CLint [6] was 0.0292 mL · min^−1 · mg^−1 proteins.

For `N#Cc1c(N2CCC3(CC2)CC3)c2cc(C(=O)O)ncc2[nH]c1=O` [Compound 83, 3-cyano-2-oxo-4-(6-azaspiro[2.5]octane-6-yl)-1,2-dihydro-1,7-naphthyridin-6-carboxylic acid], the “T1/2 (min)” value [2] was “→∞”, the “k” value [2] was 0.5421 min⁻¹ and the “Original drug residual % at 60 min” value [2] was 104.1%.

With `COC1(C)CCN(c2c(C#N)c(=O)[nH]c3cnc(C(C)(C)O)cc23)CC1` [Compound 109, 6-(2-hydroxypropan-2-yl)-4-(4-methoxy-4-methylpiperidin-1-yl)-2-oxo-1,2-dihydro-1,7-naphthyridine-3-carbonitrile] the CLint [2] was 0.0020 mL · min^−1 · mg^−1 proteins, the “k” value [2] was 0.4444 min⁻¹ and the “Original drug residual % at 60 min” value [2] was 91.9%. For the same compound, the half-life at 1 μM [2] was 11.6 h.

Compound `Cc1cc2c(N3CCC4(CCC4)CC3)c(C#N)c(=O)[nH]c2cn1` [Compound 65, 6-methyl-2-oxo-4-(7-azaspiro[3.5]nonane-7-yl)-1,2-dihydro-1,7-naphthyridin-3-carbonitrile] has a Tmax [3] of 0.5 h, an AUC(0-t) [3] of 3000 ng·h/mL and a half-life [3] of 2.25 h. The bioavailability [3] was 51.8%, the “Vz_obs iv (apparent distribution volume)” value [1] was 1.75 L/kg and the AUC(0-t) [1] was 1240 ng·h/mL. The clearance [1] was 13.8 mL/min/kg, the half-life [1] was 1.47 h and the “Vz_obs iv (apparent distribution volume)” value ([4]; intravenous bolus 1 mg/kg) was 0.66 L/kg. The Tmax ([4]; po, intragastric 2 mg/kg) was 0.5 h, the AUC(0-inf) ([4]; po, intragastric 2 mg/kg, read-out: AUCinf po) was 543 ng·h/mL and the half-life ([4]; po, intragastric 2 mg/kg, read-out: tz1/2 po (terminal elimination half-life) (converted)) was 0.47 h. It also gave a bioavailability ([4]; dose iv/po 1/2 mg/kg) of 25.5%, an AUC(0-inf) [4, 7] of 1060 ng·h/mL and a clearance ([4]; intravenous bolus 1 mg/kg) of 15.7 mL/min/kg. It also gave a half-life [4, 8] of 0.49 h.

In the case of `COC1(C)CCN(c2c(C#N)c(=O)[nH]c3cnccc23)CC1` [Compound 81, 4-(4-methoxy-4-methylpiperidin-1-yl)-2-oxo-1,2-dihydro-1,7-naphthyridin-3-carbonitrile], the CLint [2] is reported as 0.0024 mL · min^−1 · mg^−1 proteins, the “k” value [2] is reported as 0.0012 min⁻¹ and the “Original drug residual % at 60 min” value [2] is reported as 94.6%. It also gave a half-life at 1 μM [2] of 9.63 h.
